Patent publication US12606561B2, “Substituted pyrazolo[1,5-a][1,3,5]triazines as CDK inhibitors” (QURIENT CO., LTD., priority 2018, dated 2026)

Assays:
[1] = biological target: T1, CDK5/p25 (Homo sapiens, UniProt Q00535); experiment: Enzymatic assay for CDK5 (LANCE Ultra kinase assay, FRET based); assay type: biochemical; details: ATP at Km
T1 construct: purchased Invitrogen PR8543B
Summary of the method: (§1)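 Inhibition was measured at ATP Km with 68 nM ULight-MBP peptide and CDK2/Cyclin A ([…]) or CDK5/p25 ([…]), using 8-dose 4-fold compound dilutions from DMSO. Kinase reaction ran 60 min at 23° C, then Eu anti-phospho-MBP plus EDTA were added for another 60 min before the fluorescence read.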

[2] = biological target: T2, CDK7/Cyclin H/MNAT1 (Homo sapiens, UniProt P50613); experiment: Enzymatic assay for CDK7 (LANCE Ultra kinase assay, FRET based); assay type: biochemical; details: for IC50: ATP at Km
T2 construct: purchased Invitrogen PR6749B
Summary of the method: (§2)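 TR-FRET (LANCE Ultra) kinase assays with a ULight-labelled peptide substrate and a Europium-labelled anti-phospho antibody. ATP was set at its Km for each kinase. Inhibition was measured on purified CDK/cyclin complexes: CDK7/Cyclin H/MNAT1 and CDK1/Cyclin B.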

[3] = biological target: T3, CDK1/Cyclin B (Homo sapiens, UniProt P06493); experiment: Enzymatic assay for CDK1 (LANCE Ultra kinase assay, FRET based); assay type: biochemical; details: ATP at Km; read-out: CDK1 enzymatic activity IC50
T3 construct: purchased Invitrogen PR4768C
Summary of the method: as §2

[4] = biological target: T4, CDK2/Cyclin A (Homo sapiens, UniProt P24941); experiment: Enzymatic assay for CDK2 (LANCE Ultra kinase assay, FRET based); assay type: biochemical; details: ATP at Km
T4 construct: purchased Invitrogen PV6290
Summary of the method: as §1

[5] = system: H460; experiment: Cellular H460 viability assay (CellTiter-Glo, 72 hours); assay type: cell-based; details: Homo sapiens, NCI-H460; H460 cells
Procedure: All cell lines were routinely tested for mycoplasma.
To effect of the CDK7 inhibitor to inhibit the growth of target cancer cells, viability assay were conducted a 72 hour time period. Briefly, the candidate cell line was plated in 96 well plate at the following density of cells respectively. 1×10^4 cells/well for MV4-11, 5×10^3 for H460 and OVCAR-3, and 1×10^3 for A2780. […] DMSO solvent without compound served as a control and final DMSO concentration lest than 0.1%. After 72 hours of incubation at 37° C., 5% CO2 incubator, cells were analyzed for the viability using the CellTiter-Glo Luminescent Cell Viability Assay (Promega, Cat #G7570). All viability assays were performed in duplicate and Luminescence was read using an Envision (Perkin Elmer, USA). Data was analyzed using XLfit software.

[6] = system: OVCAR-3; experiment: OVCAR-3 viability assay (CellTiter-Glo, 72 hours); assay type: cell-based; details: Homo sapiens; OVCAR-3 cells
Summary of the method: (§3)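 Cells in RPMI-1640 with 10% FBS were seeded (MV4-11 1×10^4, OVCAR-3 5×10^3, A2780 1×10^3 cells/well) and treated 24 h later with compound at 0.0015–10 uM, final DMSO under 0.1%. After 72 h at 37 °C, viability was read by CellTiter-Glo luminescence, in duplicate.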

[7] = system: MV4-11; experiment: Cellular MV4-11 viability assay (CellTiter-Glo, 72 hours); assay type: cell-based; details: Homo sapiens; MV4-11 cells
Summary of the method: as §3

[8] = system: A2780; experiment: A2780 viability assay (CellTiter-Glo, 72 hours); assay type: cell-based; details: Homo sapiens; A2780 cells
Summary of the method: as §3

T3 sequence (P06493 whole entry): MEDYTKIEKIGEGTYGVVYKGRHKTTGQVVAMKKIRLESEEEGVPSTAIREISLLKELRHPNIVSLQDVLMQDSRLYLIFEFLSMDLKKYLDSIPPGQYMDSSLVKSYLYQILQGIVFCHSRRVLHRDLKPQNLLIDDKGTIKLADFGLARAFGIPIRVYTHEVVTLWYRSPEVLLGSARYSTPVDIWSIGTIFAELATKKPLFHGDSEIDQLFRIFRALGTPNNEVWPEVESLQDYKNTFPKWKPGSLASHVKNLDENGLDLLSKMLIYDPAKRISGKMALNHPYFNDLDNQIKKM
T3 sequence (P14635 whole entry partner): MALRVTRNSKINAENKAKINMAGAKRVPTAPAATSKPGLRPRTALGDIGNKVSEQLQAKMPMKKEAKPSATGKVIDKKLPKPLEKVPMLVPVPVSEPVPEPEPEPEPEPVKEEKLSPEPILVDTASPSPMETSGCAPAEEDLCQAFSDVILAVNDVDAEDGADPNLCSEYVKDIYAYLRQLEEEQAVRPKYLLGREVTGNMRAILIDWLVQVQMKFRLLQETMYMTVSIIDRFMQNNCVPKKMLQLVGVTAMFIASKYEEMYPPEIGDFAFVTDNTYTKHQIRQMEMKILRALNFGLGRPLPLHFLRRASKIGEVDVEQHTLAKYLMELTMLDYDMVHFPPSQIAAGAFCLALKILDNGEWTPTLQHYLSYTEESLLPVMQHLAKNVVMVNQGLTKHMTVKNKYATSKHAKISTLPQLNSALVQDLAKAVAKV
T2 sequence (P50613 whole entry): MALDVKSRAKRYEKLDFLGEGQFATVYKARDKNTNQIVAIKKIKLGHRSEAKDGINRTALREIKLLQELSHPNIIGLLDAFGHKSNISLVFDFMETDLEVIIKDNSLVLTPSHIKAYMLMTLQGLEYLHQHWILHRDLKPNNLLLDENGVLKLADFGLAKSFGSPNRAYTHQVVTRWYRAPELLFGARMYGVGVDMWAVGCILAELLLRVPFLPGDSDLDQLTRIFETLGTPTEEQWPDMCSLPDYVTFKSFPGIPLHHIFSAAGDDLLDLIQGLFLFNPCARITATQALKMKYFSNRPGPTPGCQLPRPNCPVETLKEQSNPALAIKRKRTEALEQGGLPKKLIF
T2 sequence (P51946 whole entry partner): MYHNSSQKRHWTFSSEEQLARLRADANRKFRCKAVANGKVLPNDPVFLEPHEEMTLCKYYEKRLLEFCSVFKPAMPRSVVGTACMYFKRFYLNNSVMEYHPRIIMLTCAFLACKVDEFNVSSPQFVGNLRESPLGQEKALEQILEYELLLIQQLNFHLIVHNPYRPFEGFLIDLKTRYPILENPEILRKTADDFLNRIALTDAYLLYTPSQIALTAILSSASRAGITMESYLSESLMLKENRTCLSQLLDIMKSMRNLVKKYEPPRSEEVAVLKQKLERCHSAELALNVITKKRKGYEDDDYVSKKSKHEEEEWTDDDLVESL
T2 sequence (P51948 whole entry partner): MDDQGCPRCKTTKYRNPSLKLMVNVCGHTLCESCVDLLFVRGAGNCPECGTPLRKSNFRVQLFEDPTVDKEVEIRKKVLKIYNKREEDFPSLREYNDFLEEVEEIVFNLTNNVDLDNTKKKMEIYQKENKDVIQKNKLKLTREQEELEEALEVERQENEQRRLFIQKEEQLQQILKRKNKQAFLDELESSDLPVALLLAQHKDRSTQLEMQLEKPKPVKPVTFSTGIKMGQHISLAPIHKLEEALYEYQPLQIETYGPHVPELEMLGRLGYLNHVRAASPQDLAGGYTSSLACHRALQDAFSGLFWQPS
T1 sequence (Q00535 whole entry): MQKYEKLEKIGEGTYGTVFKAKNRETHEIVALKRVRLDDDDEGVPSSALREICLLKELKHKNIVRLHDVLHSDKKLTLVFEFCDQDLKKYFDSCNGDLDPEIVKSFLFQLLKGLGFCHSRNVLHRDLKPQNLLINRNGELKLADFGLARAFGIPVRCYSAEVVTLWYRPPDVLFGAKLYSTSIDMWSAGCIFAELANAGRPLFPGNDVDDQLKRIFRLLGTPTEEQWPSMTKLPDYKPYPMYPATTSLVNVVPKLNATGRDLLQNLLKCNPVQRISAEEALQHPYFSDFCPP
T1 sequence (Q15078 99-307 partner limits assumed): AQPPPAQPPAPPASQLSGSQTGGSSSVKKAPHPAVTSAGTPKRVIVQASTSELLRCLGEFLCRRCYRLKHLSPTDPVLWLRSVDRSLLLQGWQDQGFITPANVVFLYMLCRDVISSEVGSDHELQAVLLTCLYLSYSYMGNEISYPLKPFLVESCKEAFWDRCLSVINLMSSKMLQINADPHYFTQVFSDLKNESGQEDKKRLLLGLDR

Compound | IC50 [1] [µM] | IC50 [2] [µM] | CDK1/CDK7: Selectivity of CDK7 inhibition over CDK1 inhibition [2] | CDK2/CDK7: Selectivity of CDK7 inhibition over CDK2 inhibition [2] | CDK5/CDK7: Selectivity of CDK7 inhibition over CDK5 inhibition [2] | IC50 [3] [µM] | IC50 [4] [µM] | IC50 [5] [µM] | IC50 [6] [µM] | IC50 [7] [µM] | IC50 [8] [µM]
CC(C)c1cnn2c(NCc3ccccc3Oc3ccc(NC(=O)/C=C/CN(C)C)cc3)nc(N3CCC(N)CC3)nc12 [Compound 10] | 0.1 to 1 | < 0.1 | B (B indicates 50 < [fold] ≤ 500) | B (B indicates 50 < [fold] ≤ 500) | C (C indicates [fold] ≤ 50) | > 1 | 0.1 to 1 | < 1 |  |  | 
CC(C)c1cnn2c(NCc3cccc(Oc4cccc(NC(=O)/C=C/CN(C)C)c4)c3)nc(N3CCC(N)CC3)nc12 [Compound 2] | 0.1 to 1 | < 0.1 | B (B indicates 50 < [fold] ≤ 500) | B (B indicates 50 < [fold] ≤ 500) | C (C indicates [fold] ≤ 50) | 0.1 to 1 | 0.1 to 1 | < 1 |  |  | 
C=CC(=O)Nc1cccc(Oc2cccc(CNc3nc(N4CCC(N)CC4)nc4c(C(C)C)cnn34)c2)c1 [Compound 5] | 0.1 to 1 | < 0.1 | B (B indicates 50 < [fold] ≤ 500) | B (B indicates 50 < [fold] ≤ 500) | C (C indicates [fold] ≤ 50) | > 1 | 0.1 to 1 | < 1 |  |  | 
CC(C)c1cnn2c(NCc3cccc(Oc4ccc(Cl)c(NC(=O)/C=C/CN(C)C)c4)c3)nc(N3CCC(N)CC3)nc12 [Compound 15] | 0.1 to 1 | < 0.1 | A (A indicates [fold] > 500) | B (B indicates 50 < [fold] ≤ 500) | B (B indicates 50 < [fold] ≤ 500) | > 1 | 0.1 to 1 | < 1 |  |  | 
CC(C)c1cnn2c(NCc3cccc(NC(=O)C4CCCN(C(=O)/C=C/CN(C)C)CC4)c3)nc(N3CCC(N)CC3)nc12 (racemic) [Compound 22] | 0.1 to 1 | < 0.1 | A (A indicates [fold] > 500) | B (B indicates 50 < [fold] ≤ 500) | C (C indicates [fold] ≤ 50) | > 1 | 0.1 to 1 | 1 to 10 |  |  | 
CC(C)c1cnn2c(NCc3cccc(Oc4ccc(F)c(NC(=O)/C=C/CN(C)C)c4)c3)nc(N3CCC(N)CC3)nc12 [Compound 13] |  |  |  |  |  |  |  | < 1 |  |  | 
CC(C)c1cnn2c(NCc3ccccc3-c3nccc4c(NC(=O)/C=C/CN(C)C)cccc34)nc(N3CCC(N)CC3)nc12 [Compound 9] |  |  |  |  |  |  |  | 1 to 10 |  |  | 
Cc1cccc(-c2ccc3cccc(NC(=O)/C=C/CN(C)C)c3n2)c1CNc1nc(N2CCC(N)CC2)nc2c(C(C)C)cnn12 [Compound 56] | > 1 | < 0.1 | A (A indicates [fold] > 500) | A (A indicates [fold] > 500) | A (A indicates [fold] > 500) | > 1 | > 1 |  | < 1 | < 1 | < 1
C=CC(=O)Nc1cccc2ccc(-c3cccc(C)c3CNc3nc(NC[C@H]4CCNC[C@@H]4O)nc4c(C(C)C)cnn34)nc12 [Compound 67] | > 1 | < 0.1 | A (A indicates [fold] > 500) | A (A indicates [fold] > 500) | A (A indicates [fold] > 500) | > 1 | > 1 |  | < 1 | < 1 | < 1
CC(C)c1cnn2c(NCc3ccccc3-c3nccc4cc(NC(=O)/C=C/CN5CCCCC5)ccc34)nc(NC[C@H]3CCNC[C@@H]3O)nc12 [Compound 76] | > 1 | < 0.1 | A (A indicates [fold] > 500) | A (A indicates [fold] > 500) | A (A indicates [fold] > 500) | > 1 | > 1 |  | < 1 | < 1 | < 1
CC(C)c1cnn2c(NCc3ccccc3-c3nccc4cc(NC(=O)/C=C/CN(C)C)ccc34)nc(NC3CCNCC3)nc12 [Compound 63] | > 1 | < 0.1 | A (A indicates [fold] > 500) | A (A indicates [fold] > 500) | A (A indicates [fold] > 500) | > 1 | > 1 |  | 1 to 10 | < 1 | 1 to 10
CC(C)c1cnn2c(NCc3ccccc3-c3nccc4cc(NC(=O)/C=C/CN(C)C)ccc34)nc(NC[C@H]3CC[C@H](O)CC3)nc12 [Compound 33] | > 1 | 0.1 to 1 | B (B indicates 50 < [fold] ≤ 500) | B (B indicates 50 < [fold] ≤ 500) | B (B indicates 50 < [fold] ≤ 500) | > 1 | > 1 |  | < 1 | < 1 | < 1
CC(C)c1cnn2c(NCc3ccccc3-c3nccc4cc(NC(=O)/C=C/CN(C)C)ccc34)nc(N3CCNCC3)nc12 [Compound 59] | > 1 | < 0.1 | A (A indicates [fold] > 500) | A (A indicates [fold] > 500) | A (A indicates [fold] > 500) | > 1 | > 1 |  | < 1 | < 1 | < 1
C=CC(=O)Nc1ccc2c(-c3ccccc3CNc3nc(N4CCC(N)CC4)nc4c(C(C)C)cnn34)nccc2c1 [Compound 46] | > 1 | < 0.1 | A (A indicates [fold] > 500) | A (A indicates [fold] > 500) | A (A indicates [fold] > 500) | > 1 | > 1 |  | < 1 | < 1 | < 1
CC(C)c1cnn2c(NCc3ccccc3-c3nccc4cc(NC(=O)/C=C/CN(C)C)ccc34)nc(N[C@H]3CC[C@H](O)C3)nc12 [Compound 32] | > 1 | < 0.1 | A (A indicates [fold] > 500) | A (A indicates [fold] > 500) | A (A indicates [fold] > 500) | > 1 | > 1 |  | < 1 | < 1 | < 1
CNC1CCN(c2nc(NCc3ccccc3-c3nccc4cc(NC(=O)/C=C/CN(C)C)ccc34)n3ncc(C(C)C)c3n2)CC1 [Compound 34] | > 1 | < 0.1 | A (A indicates [fold] > 500) | A (A indicates [fold] > 500) | A (A indicates [fold] > 500) | > 1 | > 1 |  | < 1 | < 1 | < 1
CC(C)c1cnn2c(NCc3ccccc3-c3nccc4cc(NC(=O)/C=C/CN(C)CC(N)=O)ccc34)nc(N3CCC(N)CC3)nc12 [Compound 58] | > 1 | < 0.1 | A (A indicates [fold] > 500) | A (A indicates [fold] > 500) | A (A indicates [fold] > 500) | > 1 | > 1 |  | 1 to 10 | < 1 | 1 to 10
